Experimental data as given in patent US20160000750A1, “COMBINATION OF EGCG OR METHYLATED EGCG AND A PDE INHIBITOR” (KYUSHU UNIVERSITY, NATIONAL UNIVERSITY CORPORATION, priority 2010, published 2016).

Assays:
Type in all cases: cell-based
[1] = tested on: human acute myeloid leukemia cell line, HL60; assay: Trypan blue cell viability and viable cell count, HL60; settings: vardenafil 5 μM, EGCG 5 μM added after 3 hours, 96 hours
Experimental: (§1) A human multiple myeloma cell line, U266, was subcultured in an RPMI 1640 medium (NISSUI PHARMACEUTICAL Co. LTD., Tokyo) supplemented with 10% fetal calf serum (FCS) (BIOLOGICAL INDUSTRIES) at 37° C. under vapor-saturated 5% CO2 conditions. The cells were cultured in the logarithmic growth phase. A human acute myeloid leukemia cell line, HL60, was subcultured in an RPMI 1640 medium supplemented with 10% fetal calf serum (FCS) at 37° C. under vapor-saturated 5% CO2 conditions. The cells were cultured in the logarithmic growth phase. […]
(§2) The plate was returned to the incubator immediately after the addition of EGCG, followed by culturing for 96 hours. […] After 10 minutes, the number of the cells was counted with a hemocytometer (Becton, Dickinson and Company). Unstained cells were deemed as viable cells, and the cell viability was determined as a ratio of the number of unstained cells in trypan blue staining to the total number of cells. […]

[2] = tested on: human multiple myeloma cell line, U266; assay: Trypan blue cell viability and viable cell count, U266; settings: vardenafil 5 μM, EGCG 5 μM added after 3 hours, 96 hours
Experimental: as §1, §2

[3] = tested on: human multiple myeloma cell line, RPMI8226; assay: Trypan blue cell viability and viable cell count, RPMI8226; settings: vardenafil 5 μM, EGCG 5 μM, 96 hours
Experimental: Enhancement of the activity of EGCG on multiple myeloma cells by vardenafil was investigated. A human multiple myeloma cell line, RPMI8226, was seeded in a 24-well plate at 5×10^4 cells/mL, and vardenafil was added thereto at a final concentration of 5 μM. After 3 hours, EGCG was added thereto at a final concentration of 5 μM. After 96 hours, cell viability (A) and the number (B) of viable cells were measured by trypan blue staining. The value of a control group of cells not treated with EGCG and vardenafil was defined as 100%. The results are shown in FIG. 8 (n=3, Tukey's test, *: P<0.05, ***: P<0.001).

Measured: cell viability (cell-killing activity)

(−)-epigallocatechin-3-O-gallate [EGCG]
any cytotoxicity was not observed: all assays above
